Measured values from PubChem BioAssay AID1918993 (Molecular Pharmacology Branch, DTP, NCI, 2023).

Test system: 233499-124-R-J3-PDC complex spheroid growth
Assay: Anticancer human tumor 233499-124-R-J3-PDC patient-derived colon adenocarcinoma cell line growth inhibition [AhR]
Details: for IC50: curve of first compound; for viability, T/C: stronger effect = lower value
Source text: Multicellular complex tumor spheroid response to aryl hydrocarbon receptor antagonists in combination with a variety of drugs and investigational agents in selected tumor cell lines
The current study was undertaken to assess response to aryl hydrocarbon receptor antagonists in combination with standard-of-care drugs and investigational agents in solid tumor complex spheroid models. Complex spheroids include a stromal component modeled by human endothelial cells (HUVEC) and fibroblasts modeled by human mesenchymal stem cells (MSCs). The concentration ranges selected for each drug and investigational agent were based upon clinically achievable concentrations if the clinical Cmax of the agent was known.
Compounds. The drugs and investigational agents: BAY 2416964 (NSC825713), GNF351 (NSC835774), CH-223191 (NSC835775), CPI-455 (NSC825282), aza-TdCyd (NSC777586), decitabine (NSC127716), belinostat (NSC758774), entinostat (NSC756642), pevonedistat (NSC761192), tazemetostat (NSC777109), talazoparib (NSC765396), olaparib (NSC753686), selinexor (NSC780203), nedisertib (M3814, NSC802822), bortezomib (NSC756655), venetoclax (NSC766270), doxorubicin (NSC123127), elimusertib (BAY189344, NSC800525), ceralasertib (AZD6738, NSC777638), TAK-243 (NSC785004), alisertib (NSC759677), etoposide (NSC141540), topotecan (NSC609699), eribulin (NSC707389), gemcitabine (NSC613327), carboplatin (NSC241240), cisplatin (NSC119875), and SN-38 (NSC673596) were obtained from the National Cancer Institute (NCI) Developmental Therapeutics Program Chemical Repository (32). The FDA-approved anticancer drug set is available from the Developmental Therapeutics Program at https://dtp.cancer.gov/organization/dscb/obtaining/available plates.htm. […] The stock solutions were prepared in dimethyl sulfoxide (DMSO, Sigma-Aldrich, St. Louis, MO, cat. D2650), except for the platinum compounds which were prepared in saline (Quality Biological, Gaithersburg, MD, cat. 114-055-101), at 800-fold the tested concentration and stored at -70 degrees C prior to their use. All drugs and investigational agents were tested over a range starting from a high concentration at or near the clinical Cmax and decreasing in half-log increments. If the clinical Cmax for an agent had not been determined, the highest concentration tested was 10 microM (Table 1).
Cell Culture. All cells were maintained in an incubator at 37 degrees C and 5% CO2 with 95% humidity. The PDC lines were cultured according to standard operating procedures established by the NCI PDMR (https://pdmr.cancer.gov). Briefly, all PDCs were thawed and cultured in Matrigel-coated flasks prepared with a working solution of 1X Ham's F-12 nutrient mix, without supplementation (Invitrogen, Waltham, MA, cat. 11765054), 100 U/mL penicillin-streptomycin (Invitrogen, cat. 15140122), and 2.5% Matrigel (Corning Inc., Corning, NY, cat. 354248) for the first three passages. All PDCs were cultured in complete DMEM/F-12 media containing advanced DMEM/F-12 (Invitrogen, cat. 12634028), 4.9% defined fetal bovine serum, heat inactivated (HyClone Laboratories Inc., Logan, UT, cat. SH30070.03HI), 389 ng/mL hydrocortisone (Sigma-Aldrich, cat. H4001), 9.7 ng/mL human EGF recombinant protein (Invitrogen, cat. PHG0313), 23.4 microg/mL adenine (Sigma-Aldrich, cat. A2786), 97.3 U/mL penicillin-streptomycin (Invitrogen, cat. 15140122), 1.9 mM L-glutamine (Invitrogen, cat. 25030081), and 9.7 microM Y-27632 dihydrochloride (Tocris Bioscience, Bristol, United Kingdom, cat. 1254). The PDCs were cultured in complete DMEM/F12 media without 10 microM Y-27632 dihydrochloride for at least two passages prior to the screen. The established cell lines NCI-H1341 and […] were cultured in DMEM/F-12, HEPES (Invitrogen, cat. 11330032), 5% defined fetal bovine serum (HyClone Laboratories Inc., cat. SH30070.03), ITS premix universal culture supplement [insulin (5 microg/mL), transferrin (5 microg/mL), and selenious acid (5 ng/mL)] […]

[1] = second compound 0.1 µM, first compound 0.0316 µM
[2] = second compound 0.1 µM, first compound 0.1 µM
[3] = second compound 0.1 µM, first compound 0.316 µM
[4] = second compound 0.1 µM, first compound 1 µM
[5] = second compound 0.1 µM, first compound 3.16 µM
[6] = second compound 0.1 µM, first compound 10 µM
[7] = second compound 0.316 µM, first compound 0.0316 µM
[8] = second compound 0.316 µM, first compound 0.1 µM
[9] = second compound 0.316 µM, first compound 0.316 µM
[10] = second compound 0.316 µM, first compound 1 µM
[11] = second compound 0.316 µM, first compound 3.16 µM
[12] = second compound 0.316 µM, first compound 10 µM
[13] = second compound 1 µM, first compound 0.0316 µM
[14] = second compound 1 µM, first compound 0.1 µM
[15] = second compound 1 µM, first compound 0.316 µM
[16] = second compound 1 µM, first compound 1 µM
[17] = second compound 1 µM, first compound 3.16 µM
[18] = second compound 1 µM, first compound 10 µM
[19] = second compound 3.16 µM, first compound 0.0316 µM
[20] = second compound 3.16 µM, first compound 0.1 µM
[21] = second compound 3.16 µM, first compound 0.316 µM
[22] = second compound 3.16 µM, first compound 1 µM
[23] = second compound 3.16 µM, first compound 3.16 µM
[24] = second compound 3.16 µM, first compound 10 µM
[25] = second compound 10 µM, first compound 0.0316 µM
[26] = second compound 10 µM, first compound 0.1 µM
[27] = second compound 10 µM, first compound 0.316 µM
[28] = second compound 10 µM, first compound 1 µM
[29] = second compound 10 µM, first compound 3.16 µM
[30] = second compound 10 µM, first compound 10 µM
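Further: spheroids exposed to agents for seven days before reading.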

Structure (SMILES): CC(C)CC(NC(=O)C(Cc1ccccc1)NC(=O)c1cnccn1)B(O)O (stereo not given) + CC(CO)NC(=O)c1cc(-c2ccc(Cl)cc2)nn(-c2cnn(C)c2)c1=O
- IC50 (second compound 0.1 µM): 8.47 nM
- IC50 (second compound 0.316 µM): 8.01 nM
- IC50 (second compound 1 µM): 6.87 nM
- IC50 (second compound 3.16 µM): 6.12 nM
- IC50 (second compound 10 µM): 4.96 nM
- viability, T/C (second compound 0.1 µM, first compound 0.000949 µM): 92.4%
- viability, T/C (second compound 0.1 µM, first compound 0.003 µM): 102%
- viability, T/C (second compound 0.1 µM, first compound 0.00949 µM): 44.9%
- viability, T/C (second compound 0.1 µM, first compound 0.03 µM): 0.09%
- viability, T/C (second compound 0.1 µM, first compound 0.0949 µM): 0.09%
- viability, T/C (second compound 0.1 µM, first compound 0.3 µM): 0.2%
- viability, T/C (second compound 0.316 µM, first compound 0.000949 µM): 92.1%
- viability, T/C (second compound 0.316 µM, first compound 0.003 µM): 93.2%
- viability, T/C (second compound 0.316 µM, first compound 0.00949 µM): 42.6%
- viability, T/C (second compound 0.316 µM, first compound 0.03 µM): 0.13%
- viability, T/C (second compound 0.316 µM, first compound 0.0949 µM): 0.04%
- viability, T/C (second compound 0.316 µM, first compound 0.3 µM): 0.12%
- viability, T/C (second compound 1 µM, first compound 0.000949 µM): 102%
- viability, T/C (second compound 1 µM, first compound 0.003 µM): 100%
- viability, T/C (second compound 1 µM, first compound 0.00949 µM): 30.6%
- viability, T/C (second compound 1 µM, first compound 0.03 µM): 0.08%
- viability, T/C (second compound 1 µM, first compound 0.0949 µM): 0.05%
- viability, T/C (second compound 1 µM, first compound 0.3 µM): 0.12%
- viability, T/C (second compound 3.16 µM, first compound 0.000949 µM): 84.5%
- viability, T/C (second compound 3.16 µM, first compound 0.003 µM): 88.8%
- viability, T/C (second compound 3.16 µM, first compound 0.00949 µM): 27.5%
- viability, T/C (second compound 3.16 µM, first compound 0.03 µM): 0.1%
- viability, T/C (second compound 3.16 µM, first compound 0.0949 µM): 0.13%
- viability, T/C (second compound 3.16 µM, first compound 0.3 µM): 0.12%
- viability, T/C (second compound 10 µM, first compound 0.000949 µM): 66.5%
- viability, T/C (second compound 10 µM, first compound 0.003 µM): 84.2%
- viability, T/C (second compound 10 µM, first compound 0.00949 µM): 17.2%
- viability, T/C (second compound 10 µM, first compound 0.03 µM): 0.18%
- viability, T/C (second compound 10 µM, first compound 0.0949 µM): 0.12%
- viability, T/C (second compound 10 µM, first compound 0.3 µM): 0.18%

Structure (SMILES): Nc1ccccc1NC(=O)c1ccc(CNC(=O)OCc2cccnc2)cc1 + CC(CO)NC(=O)c1cc(-c2ccc(Cl)cc2)nn(-c2cnn(C)c2)c1=O
- IC50 (second compound 0.1 µM): 2280 nM
- IC50 (second compound 0.316 µM): 2240 nM
- IC50 (second compound 1 µM): 3930 nM
- IC50 (second compound 3.16 µM): 1940 nM
- IC50 (second compound 10 µM): 1320 nM
- viability, T/C [1]: 97.6%
- viability, T/C [2]: 92.2%
- viability, T/C [3]: 87.1%
- viability, T/C [4]: 91%
- viability, T/C [5]: 33.8%
- viability, T/C [6]: 3.08%
- viability, T/C [7]: 102%
- viability, T/C [8]: 91.4%
- viability, T/C [9]: 99%
- viability, T/C [10]: 78.2%
- viability, T/C [11]: 37.9%
- viability, T/C [12]: 5%
- viability, T/C [13]: 88.8%
- viability, T/C [14]: 96.7%
- viability, T/C [15]: 105%
- viability, T/C [16]: 96%
- viability, T/C [17]: 60.7%
- viability, T/C [18]: 3.71%
- viability, T/C [19]: 91.9%
- viability, T/C [20]: 105%
- viability, T/C [21]: 101%
- viability, T/C [22]: 90.8%
- viability, T/C [23]: 19.7%
- viability, T/C [24]: 1.49%
- viability, T/C [25]: 97.1%
- viability, T/C [26]: 82.9%
- viability, T/C [27]: 87.9%
- viability, T/C [28]: 62%
- viability, T/C [29]: 11.8%
- viability, T/C [30]: 0.6%

Structure (SMILES): O=C(C=Cc1cccc(S(=O)(=O)Nc2ccccc2)c1)NO + CC(CO)NC(=O)c1cc(-c2ccc(Cl)cc2)nn(-c2cnn(C)c2)c1=O
- IC50 (second compound 0.1 µM): 5440 nM
- IC50 (second compound 0.316 µM): 2910 nM
- IC50 (second compound 1 µM): 5150 nM
- IC50 (second compound 3.16 µM): 3070 nM
- IC50 (second compound 10 µM): 3520 nM
- viability, T/C [1]: 98%
- viability, T/C [2]: 108%
- viability, T/C [3]: 111%
- viability, T/C [4]: 115%
- viability, T/C [5]: 89%
- viability, T/C [6]: 6.36%
- viability, T/C [7]: 99.5%
- viability, T/C [8]: 93%
- viability, T/C [9]: 98.2%
- viability, T/C [10]: 96.6%
- viability, T/C [11]: 46.3%
- viability, T/C [12]: 4.58%
- viability, T/C [13]: 97.6%
- viability, T/C [14]: 94.3%
- viability, T/C [15]: 110%
- viability, T/C [16]: 112%
- viability, T/C [17]: 84.1%
- viability, T/C [18]: 3.72%
- viability, T/C [19]: 94.4%
- viability, T/C [20]: 87.6%
- viability, T/C [21]: 117%
- viability, T/C [22]: 108%
- viability, T/C [23]: 48.7%
- viability, T/C [24]: 2.7%
- viability, T/C [25]: 93.9%
- viability, T/C [26]: 73.9%
- viability, T/C [27]: 90.9%
- viability, T/C [28]: 119%
- viability, T/C [29]: 54.9%
- viability, T/C [30]: 3.22%
